Where “and” joins values, the source holds several entries; their conditions need not be identical. Equal values may be shown once.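 Growth conditions: 96-well plates. Treatment: test compound, 48 hours, 5 concentrations. Analysis: linear interpolation between bracketing concentrations; unreached endpoints set to highest concentration. TGI denotes the concentration required for complete inhibition of growth.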

This is an account of results in PubChem BioAssay (NCI).

Test systems include SF-539 CNS; U251 CNS; DU-145 prostate; SK-MEL-28 melanoma; SF-295 CNS; MDA-N; HT29 colon; MALME-3M melanoma; ACHN renal; UO-31 renal; NCI-H23 lung; SN12C renal; SF-268 CNS; EKVX NSCLC; NCI-H226 lung; UACC-62 melanoma; NCI/ADR-RES ovarian; COLO 205 colon; UACC-257 melanoma; SK-MEL-5 melanoma.
Holding throughout (experiment): growth of human tumour cells (NCI), 48 h

As to `NC(=O)NNCc1c(-c2ccccc2)no[n+]1[O-]`, the TGI in the test with SF-539 CNS, in the test with U251 CNS, with DU-145 prostate, with SK-MEL-28 melanoma, in the test with SF-295 CNS and in the test on MDA-N was above 100 µM in each case. Moreover, the TGI in the test on HT29 colon, with MALME-3M melanoma, with ACHN renal, in the test on UO-31 renal, with NCI-H23 lung and with SN12C renal was above 100 µM each time. Moreover, the TGI in the test with SF-268 CNS, in the test with EKVX NSCLC, with NCI-H226 lung, in the test on UACC-62 melanoma, in the test with NCI/ADR-RES ovarian and in the test with COLO 205 colon was above 100 µM in each case. Further, the TGI with UACC-257 melanoma and in the test on SK-MEL-5 melanoma was above 100 µM in each case.

For the molecule `CCc1cc2c(c3c1CCCC3)CC1(Cc3ccc(C(=O)OC)cc3C1)C2` (stereo not given), the TGI in the test on SF-539 CNS, in the test with U251 CNS, in the test on DU-145 prostate, with SK-MEL-28 melanoma, in the test on SF-295 CNS and in the test on MDA-N was above 100 µM in each case. The TGI in the test on HT29 colon, with MALME-3M melanoma, in the test with ACHN renal, with UO-31 renal, in the test with NCI-H23 lung and in the test with SN12C renal was above 100 µM throughout. Besides, the TGI in the test on SF-268 CNS, in the test on EKVX NSCLC, in the test on NCI-H226 lung, with UACC-62 melanoma, in the test with NCI/ADR-RES ovarian and with COLO 205 colon was above 100 µM throughout. In addition, the TGI in the test with UACC-257 melanoma and with SK-MEL-5 melanoma was above 100 µM each time.

Turning to `COC1CC(C)([N+](=O)[O-])C(O)C(C)O1` (stereo not given), the TGI with SF-539 CNS, with U251 CNS, in the test on DU-145 prostate, in the test with SK-MEL-28 melanoma, in the test with SF-295 CNS and with MDA-N was above 100 µM in each case. Further, the TGI in the test on HT29 colon, in the test on MALME-3M melanoma, in the test with ACHN renal, with UO-31 renal, with NCI-H23 lung and in the test with SN12C renal was above 100 µM throughout. The TGI with SF-268 CNS, with EKVX NSCLC, with NCI-H226 lung, in the test with UACC-62 melanoma, with NCI/ADR-RES ovarian and in the test on COLO 205 colon was above 100 µM in each case. The TGI in the test with UACC-257 melanoma and with SK-MEL-5 melanoma was above 100 µM throughout.

In the case of `COc1ccc(NC(=O)CC(=O)NNC(Sc2ccccc2)c2cc(N=Nc3ccc(Br)cc3)ccc2O)cc1` (stereo not given), the TGI in the test on SF-539 CNS, in the test with U251 CNS, in the test with DU-145 prostate, with SK-MEL-28 melanoma, in the test on SF-295 CNS and in the test with MDA-N was above 10 µM in each case. In addition, the TGI with HT29 colon, with MALME-3M melanoma, in the test with ACHN renal, in the test on UO-31 renal, in the test with NCI-H23 lung and in the test on SN12C renal was above 10 µM in each case. For the same molecule, the TGI in the test on SF-268 CNS, in the test with EKVX NSCLC, with NCI-H226 lung, with UACC-62 melanoma, in the test with NCI/ADR-RES ovarian and in the test on COLO 205 colon was above 10 µM in each case. The TGI in the test on UACC-257 melanoma and with SK-MEL-5 melanoma was above 10 µM each time.

In the case of `CC1OC(OC2C(OC(=O)[C@]34CCC(C)(C)C[C@H]3C3=CC[C@@H]5[C@@]6(C)CC[C@H](OC7OC(CO)C(O)C(O)C7OC7OC(CO)C(O)C(O)C7O)C(C)(C)[C@@H]6CC[C@@]5(C)[C@]3(C)CC4)OCC(O)C2O)C(O)C(O)C1OC1OCC(O)C(OC2OCC(O)C(O)C2O)C1O` (stereo not given in full), the TGI in the test on SF-539 CNS was 42.7 µM and > 100 µM; with U251 CNS, 22.9 µM and 19.7 µM; in the test with DU-145 prostate it was 19.2 µM and 20.8 µM; in the test with SK-MEL-28 melanoma, 3.9 µM and 3.82 µM; with SF-295 CNS it was 13.1 µM and 10.7 µM; with MDA-N it was 3.58 µM and 3.09 µM. The TGI is 10.8 µM and 9.01 µM in the test on HT29 colon; 6.6 µM and 7.27 µM in the test with MALME-3M melanoma; 15.4 µM and 18.3 µM with ACHN renal; 4.14 µM and 3.85 µM in the test on UO-31 renal; 8.52 µM and 6.54 µM in the test with NCI-H23 lung; 4.82 µM and 4.43 µM with SN12C renal. In addition, the TGI in the test with SF-268 CNS is 38.7 µM and 20.5 µM; in the test on EKVX NSCLC, 8.6 µM and 7.32 µM; in the test on NCI-H226 lung, 13.9 µM and 12.4 µM; in the test on UACC-62 melanoma, 6.58 µM and 4.71 µM; with NCI/ADR-RES ovarian, 18.1 µM and 16.2 µM; in the test on COLO 205 colon, 3.42 µM and 6.5 µM. For the same molecule, the TGI was 6.02 µM and 5.36 µM with UACC-257 melanoma; 8.11 µM and 10.3 µM with SK-MEL-5 melanoma.

`CC(=O)OCC1OC(n2c(N)c(C#N)c(C)c(C#N)c2=S)C(OC(C)=O)C(OC(C)=O)C1OC(C)=O` (stereo not given): the TGI with SF-539 CNS, in the test on U251 CNS, with DU-145 prostate, with SK-MEL-28 melanoma, with SF-295 CNS and in the test on MDA-N was above 100 µM throughout. Moreover, the TGI in the test with HT29 colon, in the test on MALME-3M melanoma, with ACHN renal, in the test with UO-31 renal, in the test with NCI-H23 lung and with SN12C renal was above 100 µM throughout. The TGI in the test on SF-268 CNS, in the test on EKVX NSCLC, with NCI-H226 lung, in the test on UACC-62 melanoma, in the test with NCI/ADR-RES ovarian and in the test on COLO 205 colon was above 100 µM throughout. Besides, the TGI in the test with UACC-257 melanoma and in the test on SK-MEL-5 melanoma was above 100 µM throughout.

On to `Cc1nc(C)c(N2CCN(C(=O)O)CC2)c(=O)[nH]1`, for which the TGI with SF-539 CNS, in the test with U251 CNS, with DU-145 prostate, in the test with SK-MEL-28 melanoma, in the test on SF-295 CNS and in the test on MDA-N was above 100 µM throughout. Besides, the TGI with HT29 colon, with MALME-3M melanoma, in the test on ACHN renal, with UO-31 renal, in the test with NCI-H23 lung and in the test with SN12C renal was above 100 µM in each case. For the same molecule, the TGI with SF-268 CNS, in the test with EKVX NSCLC, in the test on NCI-H226 lung, with UACC-62 melanoma, with NCI/ADR-RES ovarian and with COLO 205 colon was above 100 µM throughout. Besides, the TGI with UACC-257 melanoma and in the test with SK-MEL-5 melanoma was above 100 µM each time.

`Cc1cc(S(=O)(=O)Nc2n[nH]c(Nc3ccc4ccccc4c3)n2)c(S)cc1Cl`: the TGI in the test on SF-539 CNS was 35.1 µM; in the test on U251 CNS, above 100 µM; in the test with DU-145 prostate, above 100 µM; with SK-MEL-28 melanoma, above 100 µM; in the test with SF-295 CNS it was 76.9 µM; in the test on MDA-N it was 39 µM. Moreover, the TGI in the test on HT29 colon, in the test on MALME-3M melanoma, in the test on ACHN renal, in the test on UO-31 renal, in the test on NCI-H23 lung and with SN12C renal was above 100 µM throughout. Moreover, the TGI in the test on SF-268 CNS, in the test with EKVX NSCLC, in the test with NCI-H226 lung, in the test on UACC-62 melanoma, with NCI/ADR-RES ovarian and in the test on COLO 205 colon was above 100 µM each time. Moreover, the TGI in the test with UACC-257 melanoma and in the test with SK-MEL-5 melanoma was above 100 µM throughout.

As to `CN1N=C(c2ccccc2)C(C(c2ccccc2[N+](=O)[O-])C2C(=O)N(C)N=C2c2ccccc2)C1=O` (stereo not given), the TGI with SF-539 CNS, in the test on U251 CNS, in the test with DU-145 prostate, in the test on SK-MEL-28 melanoma, with SF-295 CNS and with MDA-N was above 100 µM in each case. Moreover, the TGI with HT29 colon, with MALME-3M melanoma, with ACHN renal, in the test on UO-31 renal, with NCI-H23 lung and with SN12C renal was above 100 µM each time. For the same molecule, the TGI is above 100 µM with SF-268 CNS; above 100 µM with EKVX NSCLC; above 96.5 µM in the test on NCI-H226 lung; above 100 µM in the test on UACC-62 melanoma; above 100 µM in the test on NCI/ADR-RES ovarian; above 100 µM with COLO 205 colon. Besides, the TGI in the test on UACC-257 melanoma and in the test on SK-MEL-5 melanoma was above 100 µM throughout.

With `COc1cc(COC(=O)N2CC=CC2C(=O)O)c([N+](=O)[O-])cc1OC` (stereo not given), the TGI with SF-539 CNS, with U251 CNS, with DU-145 prostate, with SK-MEL-28 melanoma, with SF-295 CNS and in the test on MDA-N was above 100 µM in each case. Moreover, the TGI in the test on HT29 colon, with MALME-3M melanoma, in the test with ACHN renal, in the test with UO-31 renal, in the test with NCI-H23 lung and in the test on SN12C renal was above 100 µM throughout. Besides, the TGI with SF-268 CNS, in the test on EKVX NSCLC, with NCI-H226 lung, in the test with UACC-62 melanoma, with NCI/ADR-RES ovarian and in the test on COLO 205 colon was above 100 µM throughout. Besides, the TGI in the test with UACC-257 melanoma and in the test with SK-MEL-5 melanoma was above 100 µM throughout.
